The values that follow come from paper PMC10525135, “Computationally Designed AMPs with Antibacterial and Antibiofilm Activity against MDR Acinetobacter baumannii” (Antibiotics, 2023).

Converted amounts (≈) assume the structure as drawn. Read-outs that look alike come from different tables or passages of the source. Marks after values point to notes of the source that are not given here. Residues, ends and D or L forms follow the SMILES beside them. No end group written: not given here.

The test system of one data set is AB5075. The method, then: Bacteria were grown in 1 mL of MHB for 24 h. Experimental tubes that show growth in the presence of peptide/drug concentration were diluted 1:100. […] Colistin is reported to induce resistance within approximately 5–7 days for A. baumannii.
Data set [1] deals with A. baumannii AB5075 (MRSN959). It counts as cell-based, Acinetobacter baumannii. The method, then: (§1) Minimum inhibitory concentration (n = 3) was performed according to the CLSI protocols with a minor modification, in which Difco Mueller Hinton broth (BD 275730, Franklin Lakes, NJ, USA) was used instead of cation-adjusted Mueller Hinton broth following Wiegand et al.’s standardized protocol for testing AMPs. Bacteria were grown overnight in an opaque colony, and the concentration was determined using McFarland’s technique. An aliquot of 50 µL of 1 × 10^6 CFU/mL of bacteria was incubated with a decreasing series of peptide concentration to achieve a final bacterial concentration of 5 × 10^5 CFU/mL at 37 °C 5% CO2 for 20–24 h in Difco Mueller Hinton broth. Dilutions were performed in a 96-well polypropylene plate (Corning 3879, Corning, NY, USA). This is critical to avoid peptide binding to the plate. Results were obtained by measuring bacterial growth at OD600 nm. LL-37 and polymyxin B were used as positive controls. Samples containing only the medium and medium with peptides were used as the sterility controls and samples containing only bacteria in MHB served as the growth control. Each experiment was performed twice, and one representative experiment is shown.

In a further data set the test system is A. baumannii BAA-1710. It counts as cell-based, Acinetobacter baumannii. The method, then: as §1
Another data set deals with A. baumannii BAA-1794. It counts as cell-based, Acinetobacter baumannii. The method, then: as §1
A further data set has as its system A. baumannii BAA-1800. It counts as cell-based, Acinetobacter baumannii. The method, then: as §1
Data set [2] relates to A. baumannii strains AB5075, BAA-1710, -1794, and -1800. It counts as cell-based, Acinetobacter baumannii. The method, then:
as §1

Data set [3] concerns defibrinated human red blood cells. The data set can be described thus: Hemolysis. It counts as cell-based. As to conditions: 2% hRBC in PBS, 1 h 37 °C, OD540, relative to Triton X-100, n = 3. As for the experimental part:
To measure the hemolytic activity of peptides, 2% human red blood cells were added to various dilutions of peptide reconstituted in PBS in a sterile U-bottom polypropylene 96-well plate following a protocol developed in our laboratory Briefly, defibrinated human blood was obtained from de-identified healthy donors from BioIVT (Westbury, NY, USA). An aliquot (1 mL) of blood was centrifuged at 1600× g for 10 min and plasma was discarded, and then 1 mL of sterile 1× PBS (HyClone) was used to wash red blood cells at least three times. In the last wash step, the supernatant was discarded, and the pallet was resuspended with 750 µL of sterile PBS. RBC suspension (2% RBC) was prepared by adding 200 µL of washed RBCs to 9.8 mL of sterile 1× PBS. A total of 50 µL of 2% RBCs were added to each well (n = 3) containing diluted peptides, resulting in a final peptide concentration of 100, 10, and 1 μg/mL. A total of 2% RBCs with 1× PBS alone served as the negative control (no peptide), and 2% RBC in Triton X-100 served as the positive control. The plate was incubated for 1 h at 37 °C and then centrifuged at 1000 rpm for 2 min. The supernatant was transferred to a fresh 96-well plate (tissue culture-treated Falcon 353072) and read at OD540. The percentage of hemolysis was calculated based on the 100% hemolysis control (Triton X-100). The experiment was repeated twice.

In data set [4] the test system is A. baumannii BAA-1800 biofilm. As for the experimental part:
The MBIC assay measures the lowest concentration of a compound that inhibits the biofilm formation of an organism. A series of decreasing peptide concentrations starting from 64 μg/mL to 0.25 μg/mL (100 µL) were incubated with 1 × 10^5 CFU of A. baumannii in 100 µL of Tryptic Soy broth (TSB) in a polystyrene 96-well plate (Falcon 353072, Corning, NY, USA) for 24 h at 37 °C to assess biofilm formation inhibition, as described previously with minor modifications. After the incubation of bacteria with AMPs, OD600 nm was measured for approximate bacterial growth. Media were carefully removed, and wells (n = 3) were rinsed with tap water. Plates were heat-fixed at 70 °C for 1 h, and 200 µL of 0.1% crystal violet diluted in deionized water were added to wells and allowed to incubate for 15 min. Excess stain was rinsed off with tap water, and the plates were air-dried. After that, 200 µL of 33% glacial acetic acid was added to resolubilize the stain, and biofilm mass was measured by a spectrophotometric reading at OD590. Bacteria alone (no treatment) served as the 100% biofilm control, and media alone and media with a peptide/drug were used as the sterility control and the 0% biofilm control.

For data set [5], the system named is AB5075 pre-formed (24 h) biofilm. It counts as cell-based, Acinetobacter baumannii. As for the experimental part: The MBEC assay measures the lowest concentration of an antimicrobial agent that can eradicate established biofilms. Using the MBEC assay in the Biofilm Inoculator 96-well base (Innovotech Cat #1911, Edmonton, AB, Canada) and following the manufacturer’s protocol, 150 µL (n = 6) of 1 × 10^6 CFU/mL of AB5075 in TSB was incubated for 24 h at 37 °C at 110 rpm for biofilm formation. The lid containing pegs was rinsed with sterile PBS for 5 min, and then the lid was placed in a peptide challenge polypropylene 96-well plate containing a decreasing series of drug concentrations and incubated for 24 h at 37 °C at 110 rpm. Pegs were washed three times with tap water, heat-fixed for 70 °C for 1 h, and stained with 0.1% crystal violet for 15 min. Excess stain was rinsed off with tap water and allowed to dry. Stained pegs were resolubilized with 200 µL of 33% glacial acetic acid. OD590 was obtained to measure the remaining biofilm. Pegs with only bacteria served as the growth control and 100% biofilm control. Media alone and media with a peptide/drug served as the sterility controls. […] The experiment was performed twice.

Setting [6] is: AB5075 passaged with subinhibitory drug.
The mark [7] stands for this setting: A. baumannii BAA-1710, Difco Mueller Hinton broth, 5 × 10^5 CFU/mL, 37 °C 5% CO2, 20–24 h, OD600, n = 3.
Where [8] appears, read: A. baumannii BAA-1794, Difco Mueller Hinton broth, 5 × 10^5 CFU/mL, 37 °C 5% CO2, 20–24 h, OD600, n = 3.
Setting [9] is: summary over MDR A. baumannii strains of Table 3.
Setting [10] is: A. baumannii BAA-1800, TSB, 24 h 37 °C, crystal violet.
[11] abbreviates: A. baumannii BAA-1800, TSB, polystyrene plate, 24 h 37 °C, crystal violet OD590, n = 3.
Where [12] appears, read: MBEC100, AB5075 24 h pre-formed biofilm on pegs, 24 h challenge, crystal violet OD590, n = 6.

As usually defined, the MIC is the smallest concentration in the dilution series that meets the test's criterion for growth inhibition.

On to `CC[C@H](C)CCCCC(=O)N[C@@H](CCN)C(=O)N[C@H](C(=O)N[C@@H](CCN)C(=O)N[C@H]1CCNC(=O)[C@H]([C@@H](C)O)NC(=O)[C@H](CCN)NC(=O)[C@H](CCN)NC(=O)[C@H](CC(C)C)NC(=O)[C@@H](CC(C)C)NC(=O)[C@H](CCN)NC1=O)[C@@H](C)O` [colistin] (HELM PEPTIDE1{[CC[C@H](C)CCCCC(=O)[*:2]].[Dab].T.[Dab].[Dab].[Dab].[dL].L.[Dab].[Dab].T}$PEPTIDE1,PEPTIDE1,5:R3-11:R2$$$V2.0; N-terminus assumed; bridges inferred), for which the “MIC fold change reached, compared to the initial growth-inhibitory concentration” value in the data set on AB5075 (AB5075, exposure for 15 days) is 512 × MIC. The same compound had an MIC before exposure against AB5075 (AB5075, initial MIC (passage 0)) of 0.5 µg/mL (≈ 0.428 µM). Besides, in the data set on AB5075 (setting [6]), the “MIC after the fifth day of exposure” value worked out at 64 µg/mL and the “MIC fold change after the fifth day” value is given as 128 MIC fold.
As to FLWRISKFLGKKL-NH2 [HRZN-13], the MIC in data set [1] (A. baumannii AB5075 (MRSN959), Difco Mueller Hinton broth, 5 × 10^5 CFU/mL, 37 °C 5% CO2, 20–24 h, OD600, n = 3) came out at 32 µg/mL; against A. baumannii BAA-1710 (setting [7]) it was 32 µg/mL; in the data set with A. baumannii BAA-1794 (setting [8]), 64 µg/mL; in the data set with A. baumannii BAA-1800 (A. baumannii BAA-1800, Difco Mueller Hinton broth, 5 × 10^5 CFU/mL, 37 °C 5% CO2, 20–24 h, OD600, n = 3) it was 64 µg/mL. Further, in data set [2] (setting [9]), the “MIC across the tested strains” value was 32 to 64 µg/mL. The same compound had a Hemolysis in [3] (100 µg/mL) of 0.7%.
For the compound FLKKIWKLLGKLL-NH2 [HRZN-16], the minimum inhibitory concentration (MIC) (in [1] (AB5075 (MRSN959)); against A. baumannii BAA-1710 (BAA-1710); in the data set with A. baumannii BAA-1794 (BAA-1794); in the data set on A. baumannii BAA-1800 (BAA-1800)) was 16 µg/mL throughout. Moreover, in [2] (BAA-1710), the “MIC across the tested strains” value came out at 16 µg/mL.
Take FLWRISKFLGRKL-NH2 [HRZN-14]: the minimum inhibitory concentration (MIC) with A. baumannii BAA-1710 (BAA-1710) was determined as 32 µg/mL; against A. baumannii BAA-1794 (BAA-1794), 64 µg/mL; in the data set on A. baumannii BAA-1800 (BAA-1800), 32 µg/mL. Also, the “MIC across the tested strains” value in data set [2] (BAA-1710) fell in the range of 16 to 64 µg/mL.
Regarding `CC[C@H](C)[C@H](NC(=O)[C@H](CCCCN)NC(=O)[C@H](CCC(=O)O)NC(=O)[C@H](CCCCN)NC(=O)[C@H](CO)NC(=O)[C@H](CCCCN)NC(=O)[C@H](CCCNC(=N)N)NC(=O)[C@H](Cc1ccccc1)NC(=O)[C@H](Cc1ccccc1)NC(=O)[C@H](CC(=O)O)NC(=O)CNC(=O)[C@H](CC(C)C)NC(=O)[C@@H](N)CC(C)C)C(=O)NCC(=O)N[C@@H](CCCCN)C(=O)N[C@@H](CCC(=O)O)C(=O)N[C@@H](Cc1ccccc1)C(=O)N[C@@H](CCCCN)C(=O)N[C@@H](CCCNC(=N)N)C(=O)N[C@H](C(=O)N[C@H](C(=O)N[C@@H](CCC(N)=O)C(=O)N[C@@H](CCCNC(=N)N)C(=O)N[C@H](C(=O)N[C@@H](CCCCN)C(=O)N[C@@H](CC(=O)O)C(=O)N[C@@H](Cc1ccccc1)C(=O)N[C@@H](CC(C)C)C(=O)N[C@@H](CCCNC(=N)N)C(=O)N[C@@H](CC(N)=O)C(=O)N[C@@H](CC(C)C)C(=O)N[C@H](C(=O)N1CCC[C@H]1C(=O)N[C@@H](CCCNC(=N)N)C(=O)N[C@H](C(=O)N[C@@H](CCC(=O)O)C(=O)N[C@@H](CO)C(=O)O)[C@@H](C)O)C(C)C)[C@@H](C)CC)C(C)C)[C@@H](C)CC` [LL-37], the MIC was 32 µg/mL (≈ 7.12 µM) against A. baumannii BAA-1710 (setting [7]); 16 to 32 µg/mL against A. baumannii BAA-1794 (setting [8]); 32 µg/mL (≈ 7.12 µM) in the data set with A. baumannii BAA-1794 (A. baumannii BAA-1794, experiment shown in Figure S4). The “MIC across the tested strains” value in data set [2] (setting [9]) fell in the range of 8 to 32 µg/mL. Besides, the MBIC50 in [4] (setting [10]) is given as ~ 32 µg/mL. In data set [4] (setting [11]), this compound yielded an MBIC100 of 64 µg/mL. The compound further yielded an MBEC50 in [5] (AB5075 24 h pre-formed biofilm, crystal violet) of 4 µg/mL. Moreover, the MBEC in data set [5] (setting [12]) is reported as about 32 µg/mL. Besides, the Hemolysis in data set [3] (10 µg/mL) is 5.4%; in data set [3] (100 µg/mL), 22%.
As to KLWKLLKKLGRLL-NH2 [HRZN-17], the minimum inhibitory concentration (MIC) (in data set [1] (AB5075 (MRSN959)); against A. baumannii BAA-1710 (BAA-1710); in the data set on A. baumannii BAA-1794 (BAA-1794); with A. baumannii BAA-1800 (BAA-1800)) was 32 µg/mL throughout. The “MIC across the tested strains” value in data set [2] (BAA-1710) was 32 µg/mL.
FLPWISKFLGKIL-NH2 [HRZN-15]: the minimum inhibitory concentration (MIC) in the data set on A. baumannii BAA-1710 (BAA-1710) stood at 4 µg/mL. Besides, the minimum inhibitory concentration (MIC) against A. baumannii BAA-1794 (BAA-1794) is on record as 4 µg/mL. Further, the MIC in the data set on A. baumannii BAA-1800 (BAA-1800) is recorded as 4 µg/mL. Moreover, the “MIC across the tested strains” value in data set [2] (BAA-1710) is 4 µg/mL. Moreover, in data set [4] (BAA-1800, 24 h), the MBIC50 is given as ~ 4 µg/mL and the MBIC100 worked out at 8 µg/mL. In data set [5] (24 h), this compound registered an MBEC of 16 µg/mL and an MBEC50 of 8 µg/mL. The minimum inhibitory concentration (MIC) at the 10th passage with AB5075 (AB5075 passaged with peptide) is 8 µg/mL.
As to VRLIVAVRIWRR-NH2 [IDR-1018], in data set [4] (setting [10]), the MBIC50 is ~ 32 µg/mL. For the same compound, in data set [4] (setting [11]), the MBIC100 is >64 * µg/mL. In addition, the MBEC in data set [5] (setting [12]) was over 32 µg/mL.
